# Data published in patent US6555124B1, “Use of (meth)acrylic acid copolymers to increase the permeability of mucous membranes” (BASF Aktiengesellschaft, priority 1996, dated 2003).
# Experiments:
# [1] = test system: caco-2 cell tissue; assay: in vitro
# From the text: (§1) This cell line forms on polycarbonate membranes a tissue assemblage which is very similar in appearance and protein composition to small intestinal […]. In the Transwell system (from Costar, Bodenheim, Germany), this artificial endothelial tissue separates two chambers, which are filled with medium, into the apical and the basolateral compartment. This design allows the permeation of a substance through the caco-2 tissue layer to be determined. […] An improvement in permeability is indicated by the reversible opening of the tight junctions.
# (§2) Caco-2 cells were cultivated in DMEM (Dulbeccos Modified Eagle's Medium, from Gibco BRL, Eggenstein, Germany) with 10% FCS (fetal calf serum), 1% L-glutamine and 4.5 mg/ml glucose at 37° C. with 5% CO2 and 95% relative humidity. After trypsinization, the cells were spread at a density of 3×10^5 cells/cm^2 on transwell polycarbonate filters. Cells between the 30th and 50th passage were used to form monolayers. The monolayers were employed in the experiment 15-21 days (medium change every three days) after spreading of the cells.
# (§3) Before the experiment, the caco-2 cell tissue was washed in the Transwell filter inserts with PBS (phosphate buffer saline). Then the apical compartment was filled with EBSS (Earl's buffered salt solution, pH 6) and the basolateral compartment was filled with DMEM. After addition of the polymer to be tested, which had been neutralized to pH 7, [Kollicoat® MAE 30D (ethyl acrylate/methacrylic acid 1:1, BASF), Eudragit® L100 (methacrylic acid/methyl methacrylate 1:1, Röhm), Eudragit® S100 (methacrylic acid/methyl methacrylate 1:2, Röhm)] in a concentration of 0.5-3% by weight and of the tracer substance into the apical compartment, samples were taken after 24 hours, and the permeation rate of the tracer substance was determined.
# (§4) The experiments were analyzed by fluorescence spectrophotometry (Spex Fluorolog 1680: excitation wavelength: 488 nm, emission wavelength: 513 nm), and in the case of C22H32N6O4 by HPLC (column material: Vidac C-18; mobile phase: water/acetonitrile/0.1% trifluoroacetic acid; detection: 240 nm), the experimental results are compiled in Table 1. Measurements which were not done have been indicated by “−”.
# [2] = in vitro; conditions: human, Caco-2, pH 6
# From the text: as §1, §2, §3, §4
"Permeation rate ([1]; human, Caco-2, 24 h, pH 6)",Papp A→B at 24 h [2] [×10⁻⁶ cm/s],Structure (SMILES),"Permeation rate ([1]; Control (no polymer), caco-2 monolayer, apical EBSS pH 6, samples after 24 hours)","Permeation rate ([1]; with Eudragit L 100 2.0% by weight (neutralized to pH 7) apical, 24 hours)","Permeation rate ([1]; with Eudragit S 100 2.0% by weight (neutralized to pH 7) apical, 24 hours)","Permeation rate ([1]; with Kollicoat MAE 30 D 0.5% by weight (neutralized to pH 7) apical, 24 hours)","Permeation rate ([1]; with Kollicoat MAE 30 D 1.0% by weight (neutralized to pH 7) apical, 24 hours)","Permeation rate ([1]; with Kollicoat MAE 30 D 1.5% by weight (neutralized to pH 7) apical, 24 hours)"
56 (cm/sec) · 10^−8,0.56,"N=C(N)c1ccc(CNC(=O)[C@@H]2CCCN2C(=O)[C@H](NCC(=O)O)C2CCCCC2)cn1 [C22H32N6O4, HOOC—CH2—(D)-Cha-Pro-NH-3-(6-Am)-Pico]",–,–,–,–,–,–
–,–,"O=C(CCCCCNC(=O)CCCC[C@@H]1SC[C@@H]2NC(=O)N[C@@H]21)NCCCCCNC(=S)Nc1ccc2c(c1)C(=O)OC21c2ccc(O)cc2Oc2cc(O)ccc21 [Fluorescein-biotin, (biotin-amidocaproylamido)-(pentylthioureidyl)-fluorescein]",2.3 (cm/sec) · 10^−8,4.8 (cm/sec) · 10^−8,7.1 (cm/sec) · 10^−8,2.3 (cm/sec) · 10^−8,5.8 (cm/sec) · 10^−8,20 (cm/sec) · 10^−8
